Publication PMC11984924, “Dipeptidic Phosphonates: Potent Inhibitors of Pseudomonas aeruginosa Elastase B Showing Efficacy in a Murine Keratitis Model” (Advanced Science, 2025)
Values after ≈ are worked out from the molar mass of the structure shown.

Assays:
[1] = tested on: P. aeruginosa strain PA54 keratitis; experiment: Murine Pseudomonas keratitis model; assay type: in vivo, mouse
Method: Based on our previous findings on target engagement in a murine pneumonia model in combination with a standard‐of‐care antibiotic,^[ [30] ^] we applied the dipeptide (R)‐30 alone and in combination with the commonly used antibiotic meropenem.^[ [9] ^] The keratitis model was carried out using aged female C57BL/6 mice, as previously published.^[ [37] ^] For infection, 5*10^7 colony forming units (CFUs) of PA54 were topically administered on denuded, mechanically harmed corneas. Treatments with meropenem, (R)‐30, or meropenem in combination with (R)‐30 were performed every 8 h for 72 h (first treatment at 6 h post infection). Each of the in total nine 5 µL‐doses contained 1 mg/mL (R)‐30 and/or 0.5 mg mL^−1 meropenem. Sham‐treated mice received 5 µL‐doses of the vehicle (0.9% saline and 1% DMSO) at the time points indicated above, and uninfected eyes received no treatment. […]
(§1) Animals: The animal experiments were approved by Saarland University’s Animal Welfare Committee (Application number: 17/2021) and conducted in accordance with German and European recommendations and guidelines for the ethical use of animals. The laboratory animals were all C57BL/6N female eight to eleven months old mice. Keeping in specific pathogen-free conditions was provided. Unlimited access to water and show was secured.
(§2) Temperature was closely maintained around 22 °C and relative air humidity around 50%. Light and darkness alternated at twelve-hour intervals. All laboratory animals were purchased from Charles River GmbH, Sulzfeld, Germany.
P. aeruginosa: The P. aeruginosa strain PA54 was employed to induce an experimental bacterial keratitis in the aforementioned C57BL/6N mice. The strain PA54 was isolated from human infections and collected at Saarland University Medical Center’s Institute for Medical Microbiology and Hygienics (IMMH) in 2009. According to Magiorakos et al., PA54 can be classified as multidrug-resistant due to its lacking sensibility to the anti-pseudomonal cephalosporins ceftazidime and cefepime, the anti-pseudomonal fluoroquinolones ciprofloxacin and levofloxacin, the […] fosfomycin, and the aminoglycoside gentamicin.[18] The minimum inhibitory concentration (MIC) of the reserve antibiotic meropenem (meropenem trihydrate, Sigma) was 1 µg/mL (sensitivity limit = 2 µg/mL). The exoU- and exoT-positivity of the PA54 strain, foregrounds its keratitogenic potential.
Inoculum: The P. aeruginosa strain PA54 is routinely grown overnight on blood agar (TrypticaseTM Soy Agar, 5% sheep blood, BD, Heidelberg, Germany) at 37 °C. To obtain a stationary phase cell inoculum, a freshly grown colony was inoculated in tryptic soy broth (TSB; BD, Heidelberg, Germany) and cultured at 37 °C and 150 rounds per minute (rpm) for 16 h.
Then, 2 mL were centrifuged at 13,200 rpm at rt for 2 min, whereupon cells were resuspended in spent medium to an OD600 of 10 (∼1×1010 CFU/mL). Short storage on ice followed, before the infection procedure started.
Infection Procedure: Anesthesia and infection were performed as previously published. Briefly, fentanyl (Hameln Pharma Plus GmbH, Hameln, Germany), midazolam hydrochloride (Midazolam-Hameln, 5 mg/mL, Hameln pharma GmbH, Germany) and medetomidine hydrochloride (Domitor, Orion Corporation, Espoo, Finland) were dissolved in 0.9% NaCl (NaCl 0.9%, Ecotainer 500 mL, B. Braun, Melsungen, Germany), dosed at 0.05 mg/kg, 5 mg/kg and 0.5 mg/kg body weight, respectively, and applied by intraperitoneal injection. Analgesia (Carprofen, 5 mg/kg body weight, Zoetis Deutschland GmbH, Berlin, Germany) was ap plied subcutaneously. Lacrimation was stopped with 10 µL of a 0.6% acetylcysteine solution (Pharmacy of Saarland University Hospitals, Homburg, Germany). Local analgesia (0.5% proxymetacaine hydrochloride, Proparakain -POS Augentropfen, Ursapharm Arzneimitt el GmbH, Saarbrücken, Germany) was eye-dropped and removed after 60 seconds. The blunt […]

[2] = tested on: P. aeruginosa strain PA54; experiment: MIC against strain PA54; assay type: cell-based; details: Pseudomonas aeruginosa, read-out: minimum inhibitory concentration (MIC)
Method: The analysis of fold change and copy numbers was conducted through Microsoft Excel, and the data were graphically represented using GraphPad Prism 9.
Table S17: Primers and probes applied in this study (designs were carried out using Geneious Prime bioinformatics […]
Gene Forward primer Reverse Primer Probe Description […]
lasB GAACA CAG CCAA aeruginosa […]
GACTTC CCTG CCGA sigma factor RpoS […]
rho AAC GTTG TCATCGG termination factor
as §1, §2
P. aeruginosa: The P. aeruginosa strain PA54 was employed to induce an experimental bacterial keratitis in the aforementioned C57BL/6N mice. The strain PA54 was isolated from human infections and collected at Saarland University Medical Center’s Institute for Medical Microbiology and Hygienics (IMMH) in 2009. […]

Q: How did the “IL‐1β levels in eye homogenate” value ([1]; day 3 post infection, compared to sham treatment / uninfected eyes) turn out when C[C@@H](O)[C@H]1C(=O)N2C(C(=O)O)=C(S[C@@H]3CN[C@H](C(=O)N(C)C)C3)[C@H](C)[C@H]12 [meropenem, reference compound] was run?
A: Its value is “almost on the level of this cytokine seen in uninfected eyes”.

Q: What about the “KC levels in eye homogenate” value ([1]; day 3 post infection, compared to uninfected eyes) of the same molecule?
A: The value was “significantly higher amounts of this chemokine”.

Q: What about the “reduction of bacterial load in the eye (median)” value ([1]; day 3 post infection, whole-eye homogenates) of the same molecule?
A: Its value is 64 fold.

Q: And the “median clinical keratitis score” value ([1]; day three post infection, topical every 8 h for 72 h, 1 mg/mL (R)-30 and/or 0.5 mg/mL meropenem)?
A: Its value is 3.

Q: What about the MIC [2] of the same molecule?
A: The MIC was 1 µg/mL (≈ 2.61 µM).
